Data on one substance can be found in US20260152751A1, “INTERFERING RNA FOR INHIBITING JAK1 GENE EXPRESSION AND USE THEREOF” (Jenkem Technology Co., Ltd. (BEIJING), priority 2024, published 2026).

In data set [1] the test system is JAK1 gene. Description: qPCR of JAK1 expression in HaCaT cells transfected with modified siJAK1. The format is cell-based, human. Particulars: siRNA 50 nM, 48 h after transfection, JAK1 by qPCR, siNC = 100.00. The protocol: One day prior to transfection, 293T cells were seeded into a 24-well cell culture plate at 1×10^5 cells/well, and the culture medium was 500 μL of DMEM containing 10% FBS and 1% penicillin-streptomycin. Three replicate wells were made for each group. The culture plate was placed in an incubator with 5% CO2 at 37° C. for 24 h to allow the cells to adhere to the wall. On the day of transfection, the culture medium was changed to 450 μL of DMEM culture medium without antibiotics (containing 10% FBS). The siRNAs were diluted with 25 μL of Opti-MEM culture medium, and the control group was siNC at the same concentration; a Lipofectamine™RNAiMAX transfection reagent (Lip) was diluted with another 25 μL of Opti-MEM culture medium, and the mixture was left to stand at room temperature for 5 min; and the two dilutions were uniformly mixed and left to stand at room temperature for 5 min. 50 μL of the mixed solution described above was added to each well to obtain a final transfection volume of 500 μL, and the working concentration of the siRNA was 50 nM. After the cells were further cultured in an incubator with 5% CO2 at 37° C. for 48 h, the total RNA of the cells was extracted.
1) The RNA was reverse-transcribed into a cDNA template using the All-in-One First-Strand Synthesis MasterMix (LABLEAD, Cat. No.: F0202) kit. The reaction system was established according to Table 2, where all components were mixed uniformly and centrifuged to collect the liquid at the bottom of a tube, and the PCR program was run according to the settings of 37° C. for 2 min, 55° C. for 15 min, and 85° C. for 5 min, thereby giving the cDNA template.
2) The gene expression level was detected using the Taq SYBR® Green qPCR Premix (LABLEAD, Cat. No.: R0202) kit, and the qPCR system was established according to Table 3. All components were mixed uniformly and centrifuged to collect the liquid at the bottom of a tube, and the PCR program was run according to the following settings: • Step1: 95° C. 30 s; • Step2: 95° C. 10 s; • Step3: 60° C. 30 s+Plate Read; • Step4: Go to Step2, 40 times; • Step5: Melt Curve 65 to 95° C., increment 0.5° C., for 5 s+Plate Read.
GAPDH was used as an endogenous reference to detect the relative expression level of JAK1 gene, and the sequences of the primers used are as follows: […]
According to the method described in Example 2, human keratinocyte HaCaT cells were transfected with the modified siJAK1 at an siRNA working concentration of 50 nM. The expression level of JAK1 was detected by qPCR 48 h after the transfection. The controls included siNC and unmodified siJAK1 at the same concentration.
In general terms: In qPCR the cycle at which signal appears reflects the starting amount.

The test system of data set [2] is IFN-γ-induced STAT1 phosphorylation. Description: Western blot of IFN-γ-induced STAT1 phosphorylation in L929 cells. The format is cell-based, mouse. The note with it: siRNA 50 nM, 48 h, IFN-γ 100 ng/mL 30 min, compared to siNC in Group 3, FIG. 17. In general terms: A western blot detects proteins with antibodies after separation by electrophoresis.
Description: Mouse fibroblast L929 cells were seeded into a 6-well cell culture plate at 1×10^5 cells/well, and the culture medium was 2 mL of DMEM containing 10% FBS and 1% penicillin-streptomycin.
The cells were then harvested, and the total cellular proteins were extracted to detect the levels of phosphorylated STAT1 by Western blot.
1) The cells were lysed in an appropriate volume of pre-chilled RIPA lysis solution (supplemented with 1 mM PMSF, R1090, LABLEAD prior to use; containing protease and phosphatase inhibitors) for 3-5 min. The lysates were centrifuged at 14000 g at 4° C. for 5 min. The supernatant was carefully pipetted into a new 1.5 mL centrifuge tube. Protein concentrations were measured using the BCA method (PC0020, Solarbio). The samples were mixed with a loading buffer and incubated in a water bath kettle at 95° C. for 10 min.
2) The protein samples were separated by electrophoresis on 4-12% 12-well gradient gels (P41212, LABLEAD) using compatible electrophoresis buffer. […]
4) The PVDF membrane was trimmed based on the molecular weight of the protein and the marker, and blocked with 5% skim milk in TBST at room temperature for 1 h. […] After the membrane was washed again, chemiluminescent substrate (E1050, E1080, LABLEAD) was added, and signals were captured using the Bio-Red imaging system (ChemiDoc™ XRS+Imager) and analyzed using the accompanying software. […]

For the substance “siJAK1-3283-m11: 2′-OMe and 2′-F modified siJAK1-3283; sense strand SEQ ID NO: 51, antisense strand SEQ ID NO: 55 (sense AGAACAUUGUGAAGUACAAUU; antisense UUGUACUUCACAAUGUUCUUU; 2'-OMe and 2'-F modifications; modified_base 20..21 OTHER; thymine; modified_base 1..2 OTHER; 2'-O-methyl; modified_base 3 OTHER; 2'-fluoro; modified_base 4 OTHER; modified_base 5 OTHER; modified_base 6 OTHER; modified_base 7 OTHER; modified_base 8 OTHER; modified_base 9..11 OTHER; modified_base 12 OTHER; modified_base 13 OTHER; modi; modified_base 1..3 OTHER; modified_base 7)”, the “Relative expression level, Mean value (Mean)” value in data set [1] is reported as 18.37. Further, the “Inhibition of IFN-γ-induced STAT1 phosphorylation level by modified siJAK1 (Western blot)” value in data set [2] was “superior inhibitory effects”.
